# Experimental data as given in US12036231B2, “Cyclic dinucleotides as agonists of stimulator of interferon gene dependent signalling” (Board of Regents, The University of Texas System, priority 2017, dated 2024).
# Columns and labels:
# [1] = target: T1, STING receptor (Homo sapiens, UniProt Q86WV6, G230A/H232R/R293Q/R71H); assay: THP-1 Dual assay, NF-κB pathway (SEAP reporter); format: cell-based; conditions: 18 h incubation
# T1 construct: host or cells: THP-1 Dual cells (human monocytic THP-1 with NF-kB-SEAP and IRF-Lucia reporters)
# Source text: (§1) The INVIVOGEN® THP-1 Dual™ assay (catalog code: thpd-nfis) was used to evaluate the listed compounds as agonist of the STING receptor. The THP-1 Dual™ cells are derived from the human monocytic cell line THP-1 by stable integration of two inducible reporter constructs. This assay enables simultaneous study of the two main signaling pathways for STING: (a) the NF-κB pathway, by monitoring the activity of secreted embryonic alkaline phosphatase (SEAP); and (b) the Interferon regulatory factor (IRF) pathway, by assessing the activity of a secreted luciferase (Lucia™).
# (§2) The procedure as set forth by the manufacturer was followed, with the following modifications: (1) plates are incubated 18 h after addition of cell suspension, and (2) the optional differentiation step is not employed. Tables 1 and 2. Biological Activity
# [2] = target: T1, STING receptor; assay: THP-1 Dual assay, IRF pathway (secreted Lucia luciferase reporter; IRF3 activation); format: cell-based; conditions: 18 h incubation
# Source text: as §1, §2
# [3] = test system: MT4-2D cells; assay: Mouse Ductal Pancreatic Cancer Assay (subcutaneous MT4-2D tumors, intra-tumoral injection); format: in vivo, C57BL/6J mice; conditions: 5 ug intra-tumorally on day 15
# Procedure: Mouse Ductal Pancreatic Cancer Assay
# The procedure of Boj et a. […] 2.5×10^5 MT4-2D cells were injected subcutaneously on the right flank of male 6 week old C57BL/6J mice. 5 ug of the indicated STING agonist was injected intra-tumorally on day 15 in a volume of 50 ul.
# [4] = day 0 post challenge (before dosing)
# [5] = day 4 post challenge (before dosing)
# [6] = day 6 post challenge (before dosing)
# [7] = day 8 post challenge (before dosing)
# [8] = day 10 post challenge (before dosing)
# [9] = day 12 post challenge (before dosing)
# [10] = day 14 post challenge (before dosing)
# [11] = day 15 post challenge (day of dosing)
# T1 sequence (Q86WV6 whole entry R71H/G230A/H232R/R293Q): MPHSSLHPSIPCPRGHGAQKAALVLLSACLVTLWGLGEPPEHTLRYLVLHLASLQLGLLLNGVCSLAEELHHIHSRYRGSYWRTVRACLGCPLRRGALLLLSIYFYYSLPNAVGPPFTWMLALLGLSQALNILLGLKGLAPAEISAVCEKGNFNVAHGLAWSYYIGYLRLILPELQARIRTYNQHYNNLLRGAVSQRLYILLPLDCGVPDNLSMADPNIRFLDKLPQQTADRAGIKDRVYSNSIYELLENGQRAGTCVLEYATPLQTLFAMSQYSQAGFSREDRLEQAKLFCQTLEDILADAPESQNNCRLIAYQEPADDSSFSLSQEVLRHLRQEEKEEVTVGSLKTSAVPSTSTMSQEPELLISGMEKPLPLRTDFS
Fold induction of NF-κB activation THP-1 Dual cells ([1]; 5 mg/mL STING agonist) [fold],Fold induction of IRF3 activation in THP-1 Dual cells ([2]; 1 mg/mL STING agonist) [fold],Fold induction of IRF3 activation in THP-1 Dual cells ([2]; 5 mg/mL STING agonist) [fold],Fold induction of NF-κB activation THP-1 Dual cells ([1]; 0.1 mg/mL STING agonist) [fold],Fold induction of NF-κB activation THP-1 Dual cells ([1]; 0.5 mg/mL STING agonist) [fold],Fold induction of NF-κB activation THP-1 Dual cells ([1]; 1 mg/mL STING agonist) [fold],Fold induction of NF-κB activation THP-1 Dual cells ([1]; 10 mg/mL STING agonist) [fold],Fold induction of IRF3 activation in THP-1 Dual cells ([2]; 0.1 mg/mL STING agonist) [fold],Fold induction of IRF3 activation in THP-1 Dual cells ([2]; 0.5 mg/mL STING agonist) [fold],Fold induction of IRF3 activation in THP-1 Dual cells ([2]; 10 mg/mL STING agonist) [fold],Compound,"Tumor Vol [3, 4] [mm^3]","Tumor Vol [3, 5] [mm^3]","Tumor Vol [3, 6] [mm^3]","Tumor Vol [3, 7] [mm^3]","Tumor Vol [3, 8] [mm^3]","Tumor Vol [3, 9] [mm^3]","Tumor Vol [3, 10] [mm^3]","Tumor Vol [3, 11] [mm^3]",Tumor Vol ([3]; day 16 post challenge) [mm^3],Tumor Vol ([3]; day 22 post challenge) [mm^3],other results
2.77,9.77,112.64,,,,,,,,"Nc1ncnc2c1ccn2[C@@H]1O[C@@H]2COP(=O)(S)O[C@@H]3[C@H](O)[C@@H](CO[P@@](=O)(S)O[C@@H]2[C@H]1O)O[C@H]3n1cnc2c(N)ncnc21 (single isomer, unassigned) [Example 1a]",,,,,,,,,,,
1.29,3.52,25.91,0.97,0.99,1.01,3.71,0.99,1.88,87.63,"Nc1ncnc2c1ccn2[C@@H]1O[C@@H]2COP(=O)(S)O[C@@H]3[C@H](O)[C@@H](CO[P@@](=O)(S)O[C@@H]2[C@H]1O)O[C@H]3n1cnc2c(N)ncnc21 (single isomer, unassigned) [Example 1b]",,,,,,,,,,,
1.02,1.32,2.87,0.99,0.98,0.97,1.10,1.07,1.26,5.93,"Nc1nc2c(ncn2[C@@H]2O[C@@H]3COP(=O)(O)O[C@H]4[C@@H](O)[C@H](n5cnc6c(=O)[nH]c(N)nc65)O[C@@H]4COP(=O)(O)O[C@H]3[C@H]2O)c(=O)[nH]1 [3′,5′-c-di-GMP, cyclic di-GMP (guanosine 5′-monophosphate), reference compound]",,,,,,,,,,,
,,,,,,,,,,"Nc1ncnc2c1ncn2[C@@H]1O[C@@H]2COP(=O)(S)O[C@@H]3[C@H](O)[C@@H](CO[P@@](=O)(S)O[C@H]2[C@H]1F)O[C@H]3n1cnc2c(N)ncnc21 (stereo partly drawn) [Example 2a, (1R,6R,8R,9R,10R,12R,15R,17R,18R)-8,17-di(6-amino-9H-purin-9-yl)-9-fluoro-18-hydroxy-3,12-dimercapto-2,4,7,11,13,16-hexaoxa-3λ^5, 12λ^5-diphosphatricyclo-[13.2.1.0^6,10]octadecane-3,12-dione]",0.0,29.2,64.3,84.3,103.3,125.9,113.8,132.1,134.0,91.6,Tumor Vol ([3]; day 17 post challenge): 122.7 mm^3; Tumor Vol ([3]; day 18 post challenge): 82.8 mm^3; Tumor Vol ([3]; day 20 post challenge): 72.8 mm^3; Tumor Vol ([3]; day 25 post challenge): 124.0 mm^3; Tumor Vol ([3]; day 27 post challenge): 142.0 mm^3; Tumor Vol ([3]; day 29 post challenge): 163.1 mm^3; Tumor Vol ([3]; day 32 post challenge): 217.7 mm^3
,,,,,,,,,,"Nc1ncnc2c1ncn2[C@@H]1O[C@@H]2COP(O)(=S)O[C@@H]3C(O)[C@@H](COP(O)(=S)O[C@H]2[C@H]1O)O[C@H]3n1cnc2c(N)ncnc21 (stereo partly drawn) [ML-RR-CDA, dithio-[Rp,Sp]-cyclic-[A(2′,5′)p-A(3′,5′)p], reference compound]",0.0,19.0,56.3,81.9,84.5,107.3,110.9,125.6,193.2,147.2,Tumor Vol ([3]; day 25 post challenge): 154.0 mm^3; Tumor Vol ([3]; day 27 post challenge): 241.4 mm^3; Tumor Vol ([3]; day 29 post challenge): 198.5 mm^3; Tumor Vol ([3]; day 32 post challenge): 250.1 mm^3
1.08,1.56,5.05,0.98,0.99,1.00,1.14,1.38,1.48,6.70,"Nc1ncnc2c1ccn2[C@@H]1O[C@@H]2CO[P@@](=O)(S)O[C@@H]3[C@@H](O)[C@H](n4cnc5c(N)ncnc54)O[C@@H]3COP(=O)(S)O[C@@H]1[C@@H]2O (stereo partly drawn) [Example 3b, (1R,6R,8R,9R,10R,12R,15R,17R,18R)-17-(4-amino-7H-pyrrolo[2,3-d]pyrimidin-7-yl)-8-(6-amino-9H-purin-9-yl)-9,18-dihydroxy-3,12-dimercapto-2,4,7,11,13,16-hexaoxa-3λ^5, 12λ^5-diphosphatricyclo[13.2.1.0^6,10]octadecane-3,12-dione]",,,,,,,,,,,
,,,,,,,,,,"Nc1ncnc2c1ncn2[C@@H]1O[C@@H]2COP(=O)(S)O[C@@H]3[C@H](O)[C@@H](CO[P@@](=O)(S)O[C@H]2[C@H]1F)O[C@H]3n1cnc2c(N)ncnc21 (stereo partly drawn) [Example 2b, (1R,6R,8R,9R,10R,12R,15R,17R,18R)-8,17-di(6-amino-9H-purin-9-yl)-9-fluoro-18-hydroxy-3,12-dimercapto-2,4,7,11,13,16-hexaoxa-3λ^5, 12λ^5-diphosphatricyclo-[13.2.1.0^6,10]octadecane-3,12-dione]",0.0,28.4,53.9,66.5,87.4,98.3,106.6,114.7,130.8,64.9,Tumor Vol ([3]; day 17 post challenge): 128.3 mm^3; Tumor Vol ([3]; day 18 post challenge): 90.4 mm^3; Tumor Vol ([3]; day 20 post challenge): 115.3 mm^3; Tumor Vol ([3]; day 25 post challenge): 70.4 mm^3; Tumor Vol ([3]; day 27 post challenge): 80.7 mm^3; Tumor Vol ([3]; day 29 post challenge): 99.6 mm^3; Tumor Vol ([3]; day 32 post challenge): 102.6 mm^3
